Target: T1, human PTH1 receptor (Homo sapiens, UniProt Q03431)
T1 sequence (Q03431 27-593): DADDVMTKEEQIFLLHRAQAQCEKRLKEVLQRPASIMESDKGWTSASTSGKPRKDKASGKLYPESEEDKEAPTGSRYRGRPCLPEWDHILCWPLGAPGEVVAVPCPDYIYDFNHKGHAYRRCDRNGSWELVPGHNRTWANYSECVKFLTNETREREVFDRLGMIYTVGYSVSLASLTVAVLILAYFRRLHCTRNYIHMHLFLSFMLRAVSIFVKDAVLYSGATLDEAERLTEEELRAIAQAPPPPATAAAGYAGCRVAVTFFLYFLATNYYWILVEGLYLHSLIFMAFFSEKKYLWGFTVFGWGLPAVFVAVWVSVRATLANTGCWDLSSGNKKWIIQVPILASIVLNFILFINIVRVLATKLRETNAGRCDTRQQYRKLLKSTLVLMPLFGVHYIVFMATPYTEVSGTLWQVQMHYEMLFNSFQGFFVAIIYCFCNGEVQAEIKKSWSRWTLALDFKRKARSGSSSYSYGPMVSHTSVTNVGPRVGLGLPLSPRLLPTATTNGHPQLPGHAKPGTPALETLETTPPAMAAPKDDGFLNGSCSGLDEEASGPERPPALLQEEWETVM
Experiment: In vitro cAMP signal activity in HKRK-B7 cells (LLC-PK1 cells overexpressing the human PTH1 receptor)
Type: cell-based
Conditions: HKRK-B7 cells; compound at 1×10^−3 M; cAMP produced as percentage of that produced by hPTH(1-34) at 100 nM

Row | cAMP production activity (%) | Compound
1 | 124 | CC(=O)N(C[C@H](O)CO)c1cc(C)c(/C=C/S(=O)(=O)N2CCC3(CC2)N=C(CCCCCCCCC(F)(F)F)NC3=O)c(C)c1 [Compound 707, N—((S)-2,3-Dihydroxy-propyl)-N-(3,5-dimethyl-4-{(E)-2-[4-oxo-2-(9,9,9-trifluoro-nonyl)-1,3,8-triaza-spiro[4.5]dec-1-ene-8-sulfonyl]-vinyl}-phenyl)-acetamide]
2 | 38 | Cc1cc(CN(CCO)C(=O)OC(C)(C)C)ccc1/C=C/S(=O)(=O)N1CCC2(CC1)N=C(C1CCCCC1)NC2=O [Compound 708, {4-[(E)-2-(2-Cyclohexyl-4-oxo-1,3,8-triaza-spiro[4.5]dec-1-ene-8-sulfonyl)-vinyl]-3-methyl-benzyl}-(2-hydroxy-ethyl)-carbamic acid tert-butyl ester]
3 | 58 | CC(=O)N(c1cc(C)c(/C=C/S(=O)(=O)N2CCC3(CC2)N=C(C2CCCCC2)NC3=O)c(C)c1)C1CCC(O)CC1 (stereo not shown) [Compound 709, N-{4-[(E)-2-(2-cyclohexyl-4-oxo-1,3,8-triaza-spiro[4.5]dec-1-ene-8-sulfonyl)-vinyl]-3,5-dimethyl-phenyl}-N-(4-hydroxy-cyclohexyl)-acetamide]
4 | 76 | Cc1cc(N2C(=O)CC[C@@H]2COCCO)cc(C)c1/C=C/S(=O)(=O)N1CCC2(CC1)N=C(C1CCCCC1)NC2=O [Compound 710, 2-cyclohexyl-8-((E)-2-{4-[(R)-2-(2-hydroxy-ethoxymethyl)-5-oxo-pyrrolidin-1-yl]-2,6-dimethyl-phenyl}-ethenesulfonyl)-1,3,8-triaza-spiro[4.5]dec-1-en-4-one]
5 | 64 | Cc1cc(N(CCO)C(=O)C(C)C)ccc1/C=C/S(=O)(=O)N1CCC2(CC1)N=C(c1cccc(OC(F)(F)F)c1)NC2=O [Compound 711, N-(2-Hydroxy-ethyl)-N-(3-methyl-4-{(E)-2-[4-oxo-2-(3-trifluoromethoxy-phenyl)-1,3,8-triaza-spiro[4.5]dec-1-ene-8-sulfonyl]-vinyl}-phenyl)-isobutylamide]
6 | 16 | Cc1cc(N2C(=O)C(C)(C)C[C@@H]2CO)cc(C)c1/C=C/S(=O)(=O)N1CCC2(CC1)N=C(c1cccc(OC(F)(F)F)c1)NC2=O [Compound 712, 8-{(E)-2-[4-((R)-5-hydroxymethyl-3,3-dimethyl-2-oxo-pyrrolidin-1-yl)-2,6-dimethyl-phenyl]-ethenesulfonyl}-2-(3-trifluoromethoxy-phenyl)-1,3,8-triaza-spiro[4.5]dec-1-en-4-one]
7 | 55 | Cc1cc(N2C(=O)C(C)C[C@@H]2CO)cc(C)c1/C=C/S(=O)(=O)N1CCC2(CC1)N=C(c1cccc(OC(F)(F)F)c1)NC2=O (stereo partly drawn) [Compound 713, 8-{(E)-2-[4-((R)-5-hydroxymethyl-3-methyl-2-oxo-pyrrolidin-1-yl)-2,6-dimethyl-phenyl]-ethenesulfonyl}-2-(3-trifluoromethoxy-phenyl)-1,3,8-triaza-spiro[4.5]dec-1-en-4-one]
8 | 36 | Cc1cc(N2C(=O)N(CCO)C(C)(C)C2=O)cc(C)c1/C=C/S(=O)(=O)N1CCC2(CC1)N=C(c1cccc(OC(F)(F)F)c1)NC2=O [Compound 714, 3-(3,5-dimethyl-4-{(E)-2-[4-oxo-2-(3-trifluoromethoxy-phenyl)-1,3,8-triaza-spiro[4.5]dec-1-ene-8-sulfonyl]-vinyl}-phenyl)-1-(2-hydroxy-ethyl)-5,5-dimethyl-imidazolidine-2,4-dione]
9 | 20 | Cc1cc(N(C2CCC(O)CC2)S(C)(=O)=O)cc(C)c1/C=C/S(=O)(=O)N1CCC2(CC1)N=C(c1cccc(OC(F)(F)F)c1)NC2=O (stereo not shown) [Compound 715, N-(3,5-dimethyl-4-{(E)-2-[4-oxo-2-(3-trifluoromethoxy-phenyl)-1,3,8-triaza-spiro[4.5]dec-1-ene-8-sulfonyl]-vinyl}-phenyl)-N-(4-hydroxy-cyclohexyl)-methane sulfonamide]
10 | 62 | CCCCC1CCC(C2=NC3(CCN(S(=O)(=O)/C=C/c4c(C)cc(N(CCOCCO)C(C)=O)cc4C)CC3)C(=O)N2)CC1 (stereo not shown) [Compound 716, N-(4-{(E)-2-[2-(4-Butyl-cyclohexyl)-4-oxo-1,3,8-triaza-spiro[4.5]dec-1-ene-8-sulfonyl]-vinyl}-3,5-dimethyl-phenyl)-N-[2-(2-hydroxy-ethoxy)-ethyl]-acetamide]
11 | 111 | CC(=O)N(CCO)c1cc(C)c(/C=C/S(=O)(=O)N2CCC3(CC2)N=C(c2cccc(OC(F)(F)F)c2)NC3=O)cc1F [Compound 717, N-(2-Fluoro-5-methyl-4-{(E)-2-[4-oxo-2-(3-trifluoromethoxy-phenyl)-1,3,8-triaza-spiro[4.5]dec-1-ene-8-sulfonyl]-vinyl}-phenyl)-N-(2-hydroxy-ethyl)-acetamide]
12 | 74 | CC(=O)N(CCO)c1cc(C)c(/C=C/S(=O)(=O)N2CCC3(CC2)N=C(c2ccc(F)c(C(F)(F)F)c2)NC3=O)c(C)c1 [Compound 718, N-(4-{(E)-2-[2-(4-Fluoro-3-trifluoromethyl-phenyl)-4-oxo-1,3,8-triaza-spiro[4.5]dec-1-ene-8-sulfonyl]-vinyl}-3,5-dimethyl-phenyl)-N-(2-hydroxy-ethyl)-acetamide]
13 | 77 | Cc1cc(N(CCO)S(C)(=O)=O)ccc1/C=C/S(=O)(=O)N1CCC2(CC1)N=C(c1cccc(OC(F)(F)F)c1)NC2=O [Compound 719, N-(2-Hydroxy-ethyl)-N-(3-methyl-4-{(E)-2-[4-oxo-2-(3-trifluoromethoxy-phenyl)-1,3,8-triaza-spiro[4.5]dec-1-ene-8-sulfonyl]-vinyl}-phenyl)-methanesulfonamide]
14 | 82 | CCCCCCCCCC1=NC2(CCN(S(=O)(=O)CCc3ccc(N(CCO)S(C)(=O)=O)cc3C)CC2)C(=O)N1 [Compound 720, N-(2-Hydroxy-ethyl)-N-{3-methyl-4-[2-(2-nonyl-4-oxo-1,3,8-triaza-spiro[4.5]dec-1-ene-8-sulfonyl)-ethyl]-phenyl}-methanesulfonamide]
15 | 92 | CC(=O)N(CCO)c1ccc(CCS(=O)(=O)N2CCC3(CC2)N=C(c2ccc(F)c(C(F)(F)F)c2)NC3=O)c(C)c1 [Compound 721, N-(4-{2-[2-(4-Fluoro-3-trifluoromethyl-phenyl)-4-oxo-1,3,8-triaza-spiro[4.5]dec-1-ene-8-sulfonyl]-ethyl}-3-methyl-phenyl)-N-(2-hydroxy-ethyl)-acetamide]
16 | 60 | Cc1cc(N(CCO)C(=O)CO)ccc1/C=C/S(=O)(=O)N1CCC2(CC1)N=C(c1cccc(OC(F)(F)F)c1)NC2=O [Compound 722, 2-Hydroxy-N-(2-hydroxy-ethyl)-N-(3-methyl-4-{(E)-2-[4-oxo-2-(3-trifluoromethoxy-phenyl)-1,3,8-triaza-spiro[4.5]dec-1-ene-8-sulfonyl]-vinyl}-phenyl)-acetamide]
17 | 95 | Cc1cc(N(C)C(N)=O)cc(C)c1/C=C/S(=O)(=O)N1CCC2(CC1)N=C(C1CCC(CCC(F)(F)F)CC1)NC2=O (stereo not shown) [Compound 723, 1-[3,5-Dimethyl-4-((E)-2-{4-oxo-2-[4-(3,3,3-trifluoro-propyl)-cyclohexyl]-1,3,8-triaza-spiro[4.5]dec-1-ene-8-sulfonyl}-vinyl)-phenyl]-1-methyl-urea]
18 | 74 | Cc1cc(N(CCOCCO)C(N)=O)cc(C)c1/C=C/S(=O)(=O)N1CCC2(CC1)N=C(C1CCC(CCC(F)(F)F)CC1)NC2=O (stereo not shown) [Compound 724, 1-[3,5-Dimethyl-4-((E)-2-{4-oxo-2-[4-(3,3,3-trifluoro-propyl)-cyclohexyl]-1,3,8-triaza-spiro[4.5]dec-1-ene-8-sulfonyl}-vinyl)-phenyl]-1-[2-(2-hydroxy-ethoxy)-ethyl]-urea]
19 | 58 | COCCN(C(N)=O)c1cc(C)c(/C=C/S(=O)(=O)N2CCC3(CC2)N=C(C2CCC(CCC(F)(F)F)CC2)NC3=O)c(C)c1 (stereo not shown) [Compound 725, 1-[3,5-dimethyl-4-((E)-2-{4-oxo-2-[4-(3,3,3-trifluoro-propyl)-cyclohexyl]-1,3,8-triaza-spiro[4.5]dec-1-ene-8-sulfonyl}-vinyl)-phenyl]-1-(2-methoxy-ethyl)-urea]
20 | 75 | Cc1cc(N(C(N)=O)C(C)C)cc(C)c1/C=C/S(=O)(=O)N1CCC2(CC1)N=C(C1CCC(C)CC1)NC2=O (stereo not shown) [Compound 726, 1-(3,5-Dimethyl-4-{(E)-2-[2-(4-methyl-cyclohexyl)-4-oxo-1,3,8-triaza-spiro[4.5]dec-1-ene-8-sulfonyl]-vinyl}-phenyl)-1-isopropyl-urea]

Row | Compound | cAMP production activity (%)
21 | Cc1cc(OC[C@H](O)[C@@H](O)CO)cc(C)c1/C=C/S(=O)(=O)N1CCC2(CC1)N=C(C1CCC(CCC(F)(F)F)CC1)NC2=O (stereo partly drawn) [Compound 705, 8-{(E)-2-[2,6-dimethyl-4-((2S,3S)-2,3,4-trihydroxy-butoxy)-phenyl]-ethenesulfonyl}-2-[4-(3,3,3-trifluoro-propyl)-cyclohexyl]-1,3,8-triaza-spiro[4.5]dec-1-en-4-one] | 76
22 | O=C1NC(C2CCC(CCC(F)(F)F)CC2)=NC12CCN(S(=O)(=O)/C=C/c1cccc3c1ccn3CCOC[C@H](O)[C@@H](O)CO)CC2 (stereo partly drawn) [Compound 706, 2-[4-(3,3,3-trifluoro-propyl)-cyclohexyl]-8-((E)-2-{1-[2-((2S,3S)-2,3,4-trihydroxy-butoxy)-ethyl]-1H-indol-4-yl}-ethenesulfonyl)-1,3,8-triaza-spiro[4.5]dec-1-en-4-one] | 90
